Data published in patent US20040209778A1, “Lactone derivative, and plant growth regulator and rooting agent each containing the same as active ingredient” (priority 2001, published 2004).

Key:
[1] = system: adventitious roots of Bupleurum falcatum L.; test: Rooting test using Bupleurum falcatum L. (1); format: cell-based; conditions: for Weight of Freeze-dried Roots: day 24, 0.2 g roots planted
Experimental: In order to evaluate rooting activity, adventitious roots of Bupleurum falcatum L. were employed. The adventitious roots were obtained by growing the roots of aseptic seedlings by use of IBA. The developed roots were cultured at 23° C. in a B5 liquid medium containing 5 mg/L IBA (for 3 weeks) and in the corresponding B5 liquid medium with no IBA (for 6 weeks) in an alternate manner. The inoculation amount of the roots was 5 g/L, the incubation temperature was 23° C., and subculture was performed in the dark under shaking conditions of 100 rpm. In the rooting test, adventitious roots cultured in IBA-free medium were employed. B5 medium (30-mL) was placed in a 100 mL flask, followed by planting of the roots of Bupleurum falcatum L. (0.2 g) under aseptic conditions. The present lactone derivative, prepared in 10,000 ppm, was added to the flask so as to attain the concentration of 4 ppm or 8 ppm. A sample containing a 4 ppm (final concentration) IBA solution and a sample containing a 8 ppm (final concentration) IBA solution were employed as positive controls, and a corresponding IBA-free sample was employed as a control. Respective samples were cultured under shaking at 100 rpm at 23° C. in the dark, and on day 24, the extent of rooting was checked. The roots were freeze-dried and the weight thereof was measured.

[2] = system: adventitious roots of Bupleurum falcatum L.; test: Rooting test using Bupleurum falcatum L. (2); format: cell-based; conditions: for Number of Lateral Roots: per unit length (2 cm) of planted root, average of 3 measurements
Experimental: In order to evaluate rooting activity, adventitious roots of Bupleurum falcatum L. were employed. The adventitious roots were obtained by growing the roots of aseptic seedlings by use of IBA. The developed roots were cultured at 23° C. in a B5 liquid medium containing 5 mg/L IBA (for 3 weeks) and in the corresponding B5 liquid medium with no IBA (for 6 weeks) in an alternate manner. The inoculation amount of the roots was 5 g/L, the incubation temperature was 23° C., and subculture was performed in the dark under shaking conditions of 100 rpm.
In the rooting test, adventitious roots cultured in IBA-free medium were employed. B5 medium (30-mL) was placed in a 100 mL flask, followed by planting of the roots of Bupleurum falcatum L. (0.2 g) under aseptic conditions. The present lactone derivative, prepared in 10,000 ppm, was added to the flask so as to attain the concentration of 4 ppm or 8 ppm. A sample containing a 4 ppm (final concentration) IBA solution and a sample containing a 8 ppm (final concentration) IBA solution were employed as positive controls, and a corresponding IBA-free sample was employed as a control. Respective samples were cultured under shaking at 100 rpm at 23° C. in the dark, and on day 24, the extent of rooting was checked. The roots were freeze-dried and the weight thereof was measured.
The general procedure of the above-described rooting test (1) was followed, except that there were employed, as positive controls, samples containing the novel auxin metabolite (Fb) disclosed in Japanese Patent Application Laid-Open (kokai) No. 10-77268, at 4 ppm and 8 ppm (both final concentration).
The number of lateral roots was determined by averaging 3 measurements of the number of the lateral roots appearing per unit length (2 cm) of the planted root.

Compound | Weight of Freeze-dried Roots ([1]; 4 ppm final concentration) | Weight of Freeze-dried Roots ([1]; 8 ppm final concentration) | rooting activity ([1]; 4 ppm and 8 ppm, compared with IBA as positive control) | rooting activity ([2]; 4 ppm and 8 ppm, compared with Fb as positive control) | Weight of Freeze-dried Roots ([2]; 4 ppm final concentration) | Number of Lateral Roots ([2]; 4 ppm final concentration) | Weight of Freeze-dried Roots ([2]; 8 ppm final concentration) | Number of Lateral Roots ([2]; 8 ppm final concentration)
O=C1CCC(c2cc3ccccc3o2)O1 (stereo not drawn) [Compound 1, 5-(1-Benzofuran-2-yl)dihydro-2(3H)-furanone] | 0.37 g | 0.35 g | – | – | – | – | – | –
O=C1CCC(c2csc3ccccc23)O1 (stereo not drawn) [Compound 2, 5-(1-Benzothiophen-3-yl)dihydro-2(3H)-furanone] | 0.36 g | 0.41 g | rooting activity stronger than IBA | rooting activity stronger than Fb | 0.31 g | 30.0 | 0.45 g | 43.3
O=C(O)CCCc1c[nH]c2ccccc12 [IBA, indolebutyric acid, reference compound] | 0.31 g | 0.37 g | – | – | – | – | – | –
